# Several values for one entry are separate records, joined by “and”; a condition that tells them apart may be missing. Equal values may be shown once. Entries after “also recorded” stand apart in the source; their conditions may differ. Read-outs that look alike come from different tables or passages of the source.
# Tests used:
# [1] = test system: accumulation of A2E in the eyes; assay: A2E accumulation model; type: in vivo, abca4−/−, RPE65 Leu450Leu mice; conditions: for Day 91 A2E Concentration, individual animals: 91 days, left eye, animals 1-8, listed as Test cmpd
# Procedure: The purpose of this study was to assess the ability of test compounds to inhibit the accumulation of A2E in the eyes of abca4^−/−, RPE65 Leu450Leu mice (ABCR) following 91 days of continuous dosing.
# The test compound (R)-3-amino-1-(3-((tetrahydro-2H-pyran-4-yl)methoxy)phenyl)-propan-1-ol (Example 1) was stored in a freezer set to maintain at approximately −20° C.
# On the day prior to dosing and once weekly for 13 weeks the test articles were weighed into new empty glass scintillation vials. The compound was dissolved in ethanol (10% of final volume) and then diluted with deionized water (90% of total final volume) resulting in a concentrations of 0.2 mg/mL. This dosing solution was administered to the high dose groups (1 mg/kg). For the low dose groups (0.1 mg/kg) a […] dosing solution was prepared by diluting with vehicle (10% ethanol 90% water) to the appropriate concentration. The dosing solutions were stored in a refrigerator set to maintain between 2 to 8° C. and used for dose administration once per day for one week. The vehicle used for dosing control groups was 10% ethanol 90% deionized water.
# Male and female abca4^−/−, and RPE65 Leu450Leu, mice (Charles River Laboratories) were used for this study. The mice were approximately 8-12 week old at the initiation of dosing with a starting average body weight of 19 grams for females and 27 grams for males.
# Group 1 animals (Time zero for A2E accumulation) were euthanized with carbon dioxide followed by cervical dislocation on the first day of dosing. Immediately following the cervical dislocation both eyes of the animal was removed and transferred into separate tubes, flash frozen in liquid nitrogen and stored in the dark at −80° C. until processing and analysis.
# The remaining groups (2-4) were dosed once each day for 13 weeks. When dosed each animal was administered a 5 mL/kg dose of the appropriate test compound or vehicle via oral gavage using a 1 mL syringe fitted with a 20 gauge oral gavage needle. Upon the completion of the study, animals were euthanized with carbon dioxide followed by cervical dislocation. Immediately following the cervical dislocation both eyes of the animal was removed and transferred into separate tubes, flash frozen in liquid nitrogen and stored in the dark at −80° C. until processing and analysis for A2E concentration.
# (§1) All sample processing procedures were performed in the dark under red light.
# Extracted samples were analyzed using an Agilent 1100 HPLC system according to the procedure outlined in Table 21 (See Below)
# HPLC analysis of the eyes looks at the peak area units of the A2E present in the eyes following extraction as described above.
# Data analysis % inhibition (drug vs. recovery control), % control (drug vs. light control), and One-way ANOVA (followed by Tukey's Multiple Comparison) were performed using peak area units and performed by Prism software. Data are represented as mean and standard deviation.
# [2] = test system: retinal isomerase activity (recovery of 11-cis-retinal); assay: Comparative in vivo murine isomerase assay, dose response; set-up: species or system BALB/c mice; conditions: for Avg. % Inhibition: 11-cis-retinal, drug vs. recovery control, listed as cmpd A
# Procedure: (§2) All test compounds were stored at room temperature, dessicated.
# On the day prior to dose administration compound A and compound D were weighed into new empty glass vials. The compounds were dissolved in di-water at the concentration of 0.833 mg/mL compound A and 0.892 mg/mL compound D, serially diluted into various concentrations, and stored overnight at 4° C.
# 56 Male BALB/c mice (Charles River Laboratories) were used for this study. The mice were approximately 8 weeks at the initiation of dosing with an average body weight of 24 grams.
# The day prior to dose administration 56 BALB/c mice were placed into a dark room and dark adapted for a minimum of 12 hours prior to dose administration. The mice were maintained in the dark for the duration of the study.
# (§3) Each animal was removed from its cage and dosed accordingly to the study design in Table 4 (see below). Each animal was administered 0.1 mL of the appropriate compound or vehicle via oral gavage using a 1 mL syringe fitted with a 23 gauge oral gavage needle. Two hours following dose administration, animals were removed from the dark and exposed to 5000 Lux white light for 10 minutes to photobleach their eyes. Following the completion of the photobleach the animals were returned to the dark for 2 hours to allow for the regeneration of 11-cis-retinal in the eyes. Two hours after photobleaching each animal was euthanized with carbon dioxide followed by cervical dislocation, in the dark under red light. The light control group was euthanized immediately following photobleaching. Immediately following the cervical dislocation both eyes of each animal were removed and transferred into separate tubes, flash frozen in liquid nitrogen and stored in the dark at −80° C. until processing and analysis.
# as §1
# Extracted samples were analyzed using an Agilent 1100 HPLC system according to the procedure outlined in Table 6 (see below)
# (§4) HPLC analysis of the eyes measures the peak area units of the 110cis-Ral-Oxime_syn. Signal.
# (§5) Data analysis % inhibition (drug vs. recovery control). % control (drug vs. light control), and One-way ANOVA (followed by Tukey's Multiple Comparison) were performed using peak area units and performed by Prism software. Data are represented as mean and standard deviation.
# [3] = test system: regeneration of 11-cis-retinal; assay: Single dose time course in the in vivo isomerase assay at 0.3 mg/kg; set-up: species or system BALB/c mice; conditions: for activity at 0.3 mg/kg: Mus musculus, read-out: Percent Control (Avg. % Inhibition)
# Procedure: as §2
# The compounds were dissolved in di-water at the concentration of 0.068 mg/mL and stored overnight at 4° C.
# 52 Male BALB/c mice (Charles River Laboratories) were used for this study. The mice were approximately 8 weeks at the initiation of dosing with an average body weight of 23 grams.
# The day prior to dose administration 52 BALB/c mice were placed into a dark room and dark adapted for a minimum of 12 hours prior to dose administration. The mice were maintained in the dark for the duration of the study.
# as §3, with “Table 10” for “Table 4”, “appropriate test article” for “appropriate compound”, “vehicle orally” for “vehicle via oral gavage”, “needle. At 2, 4, 6, 8, 16 or 24” for “needle. Two”
# as §1
# Extracted samples were analyzed using an Agilent 1100 HPLC system according to the procedure outlined in Table 12 (see below)
# as §4, §5
# [4] = BALB/c mice, single oral dose, 2 hours
compound,measurement,setting,value
NCC[C@@H](O)c1cccc(OCC2CCOCC2)c1 [Example 1],"Day 91 A2E Concentration, individual animals",[1]; 0.1 mg/kg oral once daily,9.64 Pico Moles/eye and 8.97 Pico Moles/eye and 10.23 Pico Moles/eye and 8.42 Pico Moles/eye and 8.49 Pico Moles/eye and 9.6 Pico Moles/eye and 11.68 Pico Moles/eye and 10.27 Pico Moles/eye
same,"Day 91 A2E Concentration, individual animals",[1]; 1.0 mg/kg oral once daily,6.49 Pico Moles/eye and 7.68 Pico Moles/eye and 7.75 Pico Moles/eye and 8.87 Pico Moles/eye and 7.56 Pico Moles/eye and 8.01 Pico Moles/eye and 8.86 Pico Moles/eye and 9.49 Pico Moles/eye
same,effect on the accumulation of A2E,[1]; 91 days of oral dosing at 0.1 mg/kg and 1.0 mg/kg,statistically significant inhibitory effects on the accumulation of A2E
same,inhibition at 0.1 mg/kg,"[1]; Mus musculus, 2184 h, 0.1 mg/kg daily oral administration for 91 days",46.4%
same,inhibition at 1 mg/kg,"[1]; Mus musculus, 2184 h, 1 mg/kg daily oral administration for 91 days",65%
same,Avg. % Inhibition,"[2]; BALB/c mice, oral 0.3 mg/kg, 2 hours, 0.3 mg/kg",92.4%
same,Avg. % Inhibition,"[2]; BALB/c mice, oral 0.5 mg/kg, 2 hours, 0.5 mg/kg",99.3%
same,significance of inhibitory effect on the recovery of 11-cis-retinal vs. recovery control,"[2]; BALB/c mice, single oral dose 0.03-3 mg/kg, 2 hours, listed as compound A","statistically significant difference, P<0.001 for 0.3, 0.5, 1 and 3 mg/kg dose levels; also recorded: significant inhibitory effect at 0.3 mg/kg, 0.5 mg/kg, 1 mg/kg and 3 mg/kg dose levels"
same,IC50 (dose response experiment),[2]; [4],0.17 mg/kg
same,dose at which 11-cis-retinal recovery was inhibited by 50%,[2]; [4],0.17 mg/kg
same,times more active than compound D,[2]; by IC50 of the dose response experiment,3-4 ×
same,times more active than compound D,[2]; by dose showing nearly 100% inhibition (0.5 vs 3.0 mg/kg),approximately 6 ×
same,times more active than compound D,[2]; by inhibition at a dose of 0.3 mg/kg,greater than 10 ×
same,significance of inhibitory effect on the recovery of 11-cis-retinal vs. recovery control,"[3]; BALB/c mice, single oral 0.3 mg/kg, 2, 4, 6, 8, 16 and 24 hours, listed as compound A, 0.3 mg/kg","statistically significant difference, P<0.001, from the recovery control group for the 2, 4 and 6 hour time points; also recorded: not a statistically significant difference, P>0.05 for the 8, 16 and 24 time points; also recorded: significant inhibitory effect at 2, 4 and 6 hours; also recorded: no significant effect on the recovery of 11-cis-retinal at the 8, 16 and 24 hour time points; also recorded: statistically significant from the control group at the 2, 4, and 6 hour time points"
same,activity at 0.3 mg/kg,"[3]; BALB/c mice, single oral 0.3 mg/kg, time point 2 hours",2%
same,activity at 0.3 mg/kg,"[3]; BALB/c mice, single oral 0.3 mg/kg, time point 4 hours",11.5%
same,activity at 0.3 mg/kg,"[3]; BALB/c mice, single oral 0.3 mg/kg, time point 6 hours",43.7%
same,activity at 0.3 mg/kg,"[3]; BALB/c mice, single oral 0.3 mg/kg, time point 8 hours",79.8%
same,activity at 0.3 mg/kg,"[3]; BALB/c mice, single oral 0.3 mg/kg, time point 16 hours",98.5%
same,activity at 0.3 mg/kg,"[3]; BALB/c mice, single oral 0.3 mg/kg, time point 24 hours",95.8%
same,times more active than compound D,"[3]; time course experiment, 0.3 mg/kg",greater than 10 ×

# Reference: US9133154B2, “Substituted 3-phenylpropylamine derivatives for the treatment of ophthalmic diseases and disorders” (Acucela Inc., priority 2013, dated 2015)
